Reference: patent publication US7645765B2, “Use of moxaverin for treating erectile dysfunction, forms of dementia or diseases associated to an arteriosclerotic occlusion” (Molecular and Clinical Drug Research, priority 2001, dated 2010)
Converted amounts (≈) assume the structure as drawn. Where two headings read alike, the source gives them in different places.

How the values were obtained:
[1] = test system: patients having erectile dysfunction; experiment: Patient study: intracavernous injection of aqueous solutions of moxaverin; assay type: in vivo, human
Procedure: Twenty patients having a completely clarified genesis of erectile dysfunction were given intracavernous injections (injection therapy of erectile tissue) of aqueous solutions of moxaverin. In this connection, 1 ml of an injection solution containing 1 to 10 mg moxaverin hydrochloride per ml end volume, in Tyrode's buffer, at a pH=7.4 and an end concentration of 2.5% PEG 400 (in the case of 1 mg moxaverin HCl/ml) up to 25% PEG 400 (in the case of 10 mg moxaverin HCl/ml) were administered per individual injection.

[2] = Solubility of moxaverin hydrochloride in undiluted PEG 200 / PEG 400 at 37° C., pH 7.4 adjustment and dilution with Tyrode's solution; assay type: physicochemical
Procedure: Moxaverin hydrochloride was dissolved completely, as a pure substance, in increasing mass proportions (see Table 1), in 10 ml commercially available polyethylene glycol having an average molecular weight of 200 and 400, respectively (manufactured by Sigma, PEG 200 and 400, <1% H2O), while stirring constantly, at a temperature of 37° C.
Subsequently, the dissolved moxaverin was converted to an aqueous solution, while stirring constantly, by adding 1×Tyrode's solution with a normal extracellular electrolyte composition.
To determine the pH dependence of the solution behavior of moxaverin hydrochloride, a pH of 7.4 was adjusted in another series of experiments, after complete dissolution in undiluted PEG, by adding NaOH.

[3] = after oral administration; cited from earlier work
[4] = cited from earlier work
[5] = Stability of pH-neutral aqueous PEG solutions of moxaverin; assay type: physicochemical
smooth muscle cells = settings: more effective than papaverin; cited from earlier work
[6] = Direct dissolving of moxaverin HCl in 5-10% diluted PEG; assay type: physicochemical; settings: 5-10% PEG 400 or PEG 200 in H2O or Tyrode's solution, 37° C.
Procedure: In comparison, an attempt was made to dissolve moxaverin HCl in 5-10% PEG diluted with H2O and Tyrode's solution, respectively. (In other words, analogous to the series of experiments shown in the table, 15 to 40 mg moxaverin HCl were added to 10 ml 10% PEG 400, or 7.5 to 20 mg moxaverin HCl were added to 10 ml 5% PEG 400, and stirred at 37° C.) However, directly dissolving the pure substance in diluted PEG was not possible either in diluted PEG 400 or in diluted PEG 200.

[7] = for pH: 26.6° C.
Procedure: Moxaverin hydrochloride was dissolved completely, as a pure substance, in increasing mass proportions (see Table 1), […], respectively (manufactured by Sigma, PEG 200 and 400, <1% H2O), while stirring constantly, […]

[8] = Solubility in water / aqueous solution; assay type: physicochemical
Procedure: Also, this low concentration of moxaverin would be difficult to compensate by means of the administration of larger volumes. In addition, the stability of active substances in highly concentrated solutions is generally greater than in solutions having a low concentration. In the form of the free base, moxaverin is practically insoluble in water (<1 mg/ml).

[9] = Activity of moxaverin HCl dissolved in pH-neutral PEG solution; settings: pH-neutral diluted PEG solution
[10] = 150 mg in 10 ml PEG 200, 37° C.
[11] = 150 mg in 10 ml PEG 400, 37° C.
[12] = 200 mg in 10 ml PEG 200, 37° C.
[13] = 200 mg in 10 ml PEG 400, 37° C.
[14] = 250 mg in 10 ml PEG 200, 37° C.
[15] = 250 mg in 10 ml PEG 400, 37° C.
[16] = 300 mg in 10 ml PEG 200, 37° C.
[17] = 300 mg in 10 ml PEG 400, 37° C.
[18] = 350 mg in 10 ml PEG 200, 37° C.
[19] = 350 mg in 10 ml PEG 400, 37° C.
[20] = 400 mg in 10 ml PEG 200, 37° C.
[21] = 400 mg in 10 ml PEG 400, 37° C.

SMILES: CCc1cc2cc(OC)c(OC)cc2c(Cc2ccccc2)n1 [moxaverin, 1-benzyl-3-ethyl-6,7-dimethoxyisoquinoline]
- pain in connection with the injection ([1]; intracavernous injection): No pain was observed
- side effects such as priapism ([1]; intracavernous injection): not observed
- cases with sufficiently strong penile erection ([1]; intracavernous, 1 to 10 mg moxaverin hydrochloride in 1 ml, 20 patients): more than 90%
- degree of erection E ([1]; scale from 0 to 5, intracavernous injection): 4-5
- Solubility at pH 7.4 [2, 10]: Yes
- pH [2, 10]: 3.05
- Solubility at pH 7.4 [2, 11]: Yes
- pH [2, 11]: 2.53
- Solubility at pH 7.4 [2, 12]: Yes
- pH [2, 12]: 3.06
- Solubility at pH 7.4 [2, 13]: Yes
- pH [2, 13]: 2.33
- Solubility at pH 7.4 [2, 14]: Yes
- pH [2, 14]: 2.97
- Solubility at pH 7.4 [2, 15]: Yes
- pH [2, 15]: 2.27
- Solubility at pH 7.4 [2, 16]: Yes
- pH [2, 16]: 2.95
- Solubility at pH 7.4 [2, 17]: Yes
- pH [2, 17]: 2.30
- Solubility at pH 7.4 [2, 18]: No
- pH [2, 18]: 2.87
- Solubility at pH 7.4 [2, 19]: Yes
- pH [2, 19]: 2.22
- Solubility at pH 7.4 [2, 20]: No
- pH [2, 20]: 2.75
- Solubility at pH 7.4 [2, 21]: Yes
- pH [2, 21]: 2.12
- solution behaviour after pH neutralization ([2]; PEG 400, high concentrations, pH 7.4): remained in solution
- maximum moxaverin concentration in the finished aqueous medicinal solution ([2]; PEG as solubilizer, upper limit 30% PEG): approximately 12 mg/ml
- behaviour on dilution with 1×Tyrode's solution ([2]; dissolved in PEG, diluted as desired): without the dissolved moxaverin precipitating
- precipitation on dilution of pH-neutral solutions ([2]; low PEG concentrations of 5% and less): did not precipitate
- Solubility ([2]; undiluted polyethylene glycol (PEG), 37 °C, organic solvent or mixture, thermodynamic from solid, undiluted PEG, read-out: maximum solubility in undiluted PEG): ~40 mg/mL (≈ 130 mM)
- toxicity relative to papaverin [3]: ten times less toxic
- solubility in water ([4]; free base, water): < 1 mg/mL
- time the solutions remained stable without precipitation [5]: more than six months
- effectiveness as musculotropic spasmolytic relative to parent substance papaverin (smooth muscle cells): 2.5 ×

SMILES: CCc1cc2cc(OC)c(OC)cc2c(Cc2ccccc2)n1.Cl [moxaverin hydrochloride]
- concentration at which moxaverin HCl precipitated after neutralization ([2]; PEG 200, pH 7.4): ≥ 35000 µg/mL
- moxaverin concentration achieved in undiluted polyethylene glycol 400 ([2]; undiluted PEG 400, 37° C.): up to 40 mg/ml
- directly dissolving the pure substance in diluted PEG [6]: not possible
- Solubility [7]: Dissolved
- maximum brought into solution in EtOH [7]: ≤ 200 mg/mL
- pH ([7]; 10 mg/ml in ethanol 90%): 3.49
- pH ([7]; 20 mg/ml in ethanol 90%): 3.36
- pH ([7]; 30 mg/ml in ethanol 90%): 3.30
- pH ([7]; 40 mg/ml in ethanol 90%): 3.19
- pH ([7]; 50 mg/ml in ethanol 90%): 3.13
- pH ([7]; 60 mg/ml in ethanol 90%): 3.11
- pH ([7]; 100 mg/ml in ethanol 90%): 3.00
- pH ([7]; 200 mg/ml in ethanol 90%): 2.96
- maximum brought into solution in H2O [8]: < 1 mg/mL
- activity of the dissolved moxaverin HCl [9]: active
- maximum concentration of moxaverin HCl in aqueous solution ([4]; aqueous solutions having a physiological pH): ≤ 1 mg/mL
